Experimental data reported in patent publication US11925629B2, “Heterocyclic inhibitors of ERK1 and ERK2 and their use in the treatment of cancer” (Asana Biosciences, LLC, priority 2015, dated 2024).

Assays:
Format in all cases: cell-based, human
[1] = system: HT-29 (colorectal carcinoma, B-RafV600E) cells; experiment: Cell proliferation (Alamar Blue) assay, HT-29; details: Homo sapiens, HT-29, HT29 cells
Method in brief: (§1)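 Cells seeded at 5000/well and allowed 16-24 h at 37° C./5% CO2, then exposed to compound (typically 0.0005-10 uM, 3-fold serial dilutions) for 72 h. Viability was read by Alamar Blue fluorescence (ex 540/em 590 nm) after 1-3 h. IC50 came from a variable-slope sigmoidal dose-response fit.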

[2] = system: HCT116 (colorectal carcinoma, K Ras G13D) cells; experiment: Cell proliferation (Alamar Blue) assay, HCT116; details: Homo sapiens, HCT-116, HCT116 cells
Method in brief: as §1

[3] = system: phosphorylation of RSK1(S380) (the downstream target of ERK1/2); experiment: Phospho-RSK1(S380) ELISA assay in HT-29 cells; details: Homo sapiens, HT-29, HT29 cells, phospho-RSK1(S380); read-out: Mechanistic Cell Assay RSK1 Phos HT29 IC50
Method in brief: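 HT-29 colorectal carcinoma cells (B-RafV600E), plated overnight at 37° C./5% CO2, were treated with compound dilutions for 2 h. Lysates were analysed by phospho-RSK1(Ser380) sandwich ELISA with absorbance at 450 nm. IC50 came from a sigmoidal variable-slope dose-response fit.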

| IC50 [1] | IC50 [2] | IC50 [3] | SMILES |
| --- | --- | --- | --- |
| 500 to 2500 nM | 250 to 500 nM | 100 to 250 nM | Cc1cnc(Nc2ccc3c(c2)OCO3)nc1-n1ccc(C(=O)NC(CO)c2ccc(F)cc2)c1 (stereo not drawn) [Example 172, 1-(2-(benzo[d][1,3]dioxol-5-ylamino)-5-methylpyrimidin-4-yl)-N-(1-(4-fluorophenyl)-2-hydroxyethyl)-1H-pyrrole-3-carboxamide] |
| 100 to 250 nM | 100 to 250 nM | 100 to 250 nM | Cc1cnc(Nc2ccc3c(c2)CCCO3)nc1-n1ccc(C(=O)NC(CO)c2ccccc2)c1 (stereo not drawn) [Example 173, 1-(2-(chroman-6-ylamino)-5-methylpyrimidin-4-yl)-N-(2-hydroxy-1-phenylethyl)-1H-pyrrole-3-carboxamide] |
| > 2500 nM | > 2500 nM | > 2500 nM | Cc1cnc(NC2CCNC2)nc1-n1ccc(C(=O)N[C@H](CO)c2cccc(Cl)c2)c1 (stereo partly drawn) [Example 174, N-((S)-1-(3-chlorophenyl)-2-hydroxyethyl)-1-(5-methyl-2-(pyrrolidin-3-ylamino)pyrimidin-4-yl)-1H-pyrrole-3-carboxamide] |
| ≤ 100 nM | 250 to 500 nM | 100 to 250 nM | Cc1cnc(Nc2ccc(F)c(N3CCOCC3)c2)nc1-n1ccc(C(=O)NC(CO)c2cccc(Cl)c2)c1 (stereo not drawn) [Example 175, N-(1-(3-chlorophenyl)-2-hydroxyethyl)-1-(2-((4-fluoro-3-morpholinophenyl)amino)-5-methylpyrimidin-4-yl)-1H-pyrrole-3-carboxamide] |
| 500 to 2500 nM | > 2500 nM | 500 to 2500 nM | O=C(NC(CO)c1cccc(Cl)c1)c1ccn(-c2ccnc(Nc3ccc4c(c3)OC(F)(F)O4)n2)c1 (stereo not drawn) [Example 176, N-(1-(3-chlorophenyl)-2-hydroxyethyl)-1-(2-((2,2-difluorobenzo[d][1,3]dioxol-5-yl)amino)pyrimidin-4-yl)-1H-pyrrole-3-carboxamide] |
| ≤ 100 nM | 100 to 250 nM | 100 to 250 nM | Cc1cnc(Nc2ccc(F)cc2)nc1-n1cnc(C(=O)NC(CN)c2cccc(Cl)c2)c1 (stereo not drawn) [Example 177, N-(2-amino-1-(3-chlorophenyl)ethyl)-1-(2-((4-fluorophenyl)amino)-5-methylpyrimidin-4-yl)-1H-imidazole-4-carboxamide] |
| > 2500 nM | 500 to 2500 nM | 250 to 500 nM | Cc1cnc(Nc2ccc(N3CCC(N4CCNCC4)CC3)cc2)nc1-n1ccc(C(=O)NC(CO)c2ccccc2)c1 (stereo not drawn) [Example 178, N-(2-hydroxy-1-phenylethyl)-1-(5-methyl-2-((4-(4-(piperazin-1-yl)piperidin-1-yl)phenyl)amino)pyrimidin-4-yl)-1H-pyrrole-3-carboxamide] |
| 500 to 2500 nM | 500 to 2500 nM | 500 to 2500 nM | Cc1cnc(Nc2ccc(F)c(C(=O)N3CCN(C)CC3)c2)nc1-n1ccc(C(=O)NC(CO)c2cccc(Cl)c2)c1 (stereo not drawn) [Example 179, N-(1-(3-chlorophenyl)-2-hydroxyethyl)-1-(2-((4-fluoro-3-(4-methylpiperazine-1-carbonyl)phenyl)amino)-5-methylpyrimidin-4-yl)-1H-pyrrole-3-carboxamide] |
| 500 to 2500 nM | > 2500 nM | 250 to 500 nM | Cc1cnc(Nc2ccccc2)cc1-n1cnc(C(=O)NC(CO)c2cccc(Cl)c2)c1 (stereo not drawn) [Example 180, N-(1-(3-chlorophenyl)-2-hydroxyethyl)-1-(5-methyl-2-(phenylamino)pyridin-4-yl)-1H-imidazole-4-carboxamide] |
| > 2500 nM | > 2500 nM | 500 to 2500 nM | COc1cc(C(=O)N2CCOCC2)c(F)cc1Nc1ncc(C)c(-n2ccc(C(=O)NC(CO)c3cccc(Cl)c3)c2)n1 (stereo not drawn) [Example 181, N-(1-(3-chlorophenyl)-2-hydroxyethyl)-1-(2-((5-fluoro-2-methoxy-4-(morpholine-4-carbonyl)phenyl)amino)-5-methylpyrimidin-4-yl)-1H-pyrrole-3-carboxamide] |
| 500 to 2500 nM | 250 to 500 nM | 500 to 2500 nM | Cc1cc(Nc2ncc(C)c(-n3ccc(C(=O)NC(CO)c4cccc(Cl)c4)c3)n2)ccc1C1CCNCC1 (stereo not drawn) [Example 182, N-(1-(3-chlorophenyl)-2-hydroxyethyl)-1-(5-methyl-2-((3-methyl-4-(piperidin-4-yl)phenyl)amino)pyrimidin-4-yl)-1H-pyrrole-3-carboxamide] |
| > 2500 nM | > 2500 nM | 500 to 2500 nM | Cc1cn(-c2ccnc(Nc3ccccc3)c2)cc1C(=O)N[C@H](CO)c1cccc(Cl)c1 [Example 183, (S)-N-(1-(3-chlorophenyl)-2-hydroxyethyl)-4-methyl-1-(2-(phenylamino)pyridin-4-yl)-1H-pyrrole-3-carboxamide] |
| 500 to 2500 nM | 250 to 500 nM | 500 to 2500 nM | COc1ccc(Nc2ncc(C)c(-n3ccc(C(=O)NC(CO)c4cccc(Cl)c4)c3)n2)cc1OCCCN(C)C (stereo not drawn) [Example 184, N-(1-(3-chlorophenyl)-2-hydroxyethyl)-1-(2-((3-(3-(dimethylamino)propoxy)-4-methoxyphenyl)amino)-5-methylpyrimidin-4-yl)-1H-pyrrole-3-carboxamide] |
| 250 to 500 nM | 250 to 500 nM | 250 to 500 nM | Cc1cnc(Nc2ccc3c(c2)OCC3)nc1-n1ccc(C(=O)NC(CO)c2ccccc2)c1 (stereo not drawn) [Example 185, 1-(2-((2,3-dihydrobenzofuran-6-yl)amino)-5-methylpyrimidin-4-yl)-N-(2-hydroxy-1-phenylethyl)-1H-pyrrole-3-carboxamide] |
| 500 to 2500 nM | 250 to 500 nM | 500 to 2500 nM | Cc1cnc(Nc2ccc3c(c2)OCCC3)nc1-n1ccc(C(=O)NC(CO)c2ccccc2)c1 (stereo not drawn) [Example 186, 1-(2-(chroman-7-ylamino)-5-methylpyrimidin-4-yl)-N-(2-hydroxy-1-phenylethyl)-1H-pyrrole-3-carboxamide] |
| 250 to 500 nM | 500 to 2500 nM | 250 to 500 nM | Cc1cccc(C(CO)NC(=O)c2ccn(-c3nc(N[C@H]4CCOC4)ncc3C)c2)c1 (stereo partly drawn) [Example 187, N-(2-hydroxy-1-(m-tolyl)ethyl)-1-(5-methyl-2-(((S)-tetrahydrofuran-3-yl)amino)pyrimidin-4-yl)-1H-pyrrole-3-carboxamide] |
| > 2500 nM | > 2500 nM | > 2500 nM | O=C(N[C@H](CO)c1cccc(Cl)c1)c1ccn(-c2ccnc(NC3CCOC3)c2)c1 (stereo partly drawn) [Example 188, N-((S)-1-(3-chlorophenyl)-2-hydroxyethyl)-1-(2-((tetrahydrofuran-3-yl)amino)pyridin-4-yl)-1H-pyrrole-3-carboxamide] |
| > 2500 nM | > 2500 nM | 250 to 500 nM | Cc1cnc(NCC2CCCO2)nc1-n1ccc(C(=O)N[C@H](CO)c2cccc(Cl)c2)c1 (stereo partly drawn) [Example 190, N-((S)-1-(3-chlorophenyl)-2-hydroxyethyl)-1-(5-methyl-2-(((tetrahydrofuran-2-yl)methyl)amino)pyrimidin-4-yl)-1H-pyrrole-3-carboxamide] |
| > 2500 nM | > 2500 nM | 500 to 2500 nM | Cc1cnc(NCc2cccnc2)cc1-n1ccc(C(=O)NC(CO)c2ccc(F)c(Cl)c2)c1 (stereo not drawn) [Example 193, N-(1-(3-chloro-4-fluorophenyl)-2-hydroxyethyl)-1-(5-methyl-2-((pyridin-3-ylmethyl)amino)pyridin-4-yl)-1H-pyrrole-3-carboxamide] |
| 250 to 500 nM | 500 to 2500 nM | 250 to 500 nM | Cc1cnc(Nc2ccc(F)c(C(=O)N(C)C)c2)nc1-n1ccc(C(=O)NC(CO)c2cccc(Cl)c2)c1 (stereo not drawn) [Example 194, N-(1-(3-chlorophenyl)-2-hydroxyethyl)-1-(2-((3-(dimethylcarbamoyl)-4-fluorophenyl)amino)-5-methylpyrimidin-4-yl)-1H-pyrrole-3-carboxamide] |
| 100 to 250 nM | 500 to 2500 nM | 100 to 250 nM | Cc1cnc(NC2CCCCC2)nc1-n1ccc(C(=O)NC(CO)c2cccc(Cl)c2)c1 (stereo not drawn) [Example 195, N-(1-(3-chlorophenyl)-2-hydroxyethyl)-1-(2-(cyclohexylamino)-5-methylpyrimidin-4-yl)-1H-pyrrole-3-carboxamide] |
| 500 to 2500 nM | 500 to 2500 nM | 500 to 2500 nM | CNC(=O)c1ccc(Nc2ncc(C)c(-n3ccc(C(=O)NC(CO)c4cccc(Cl)c4)c3)n2)cc1 (stereo not drawn) [Example 196, N-(1-(3-chlorophenyl)-2-hydroxyethyl)-1-(5-methyl-2-((4-(methylcarbamoyl)phenyl)amino)pyrimidin-4-yl)-1H-pyrrole-3-carboxamide] |
| 500 to 2500 nM | > 2500 nM | 250 to 500 nM | CCC(C)Nc1ncc(C)c(-n2ccc(C(=O)N[C@H](CO)c3ccc(F)c(Cl)c3)c2)n1 (stereo partly drawn) [Example 197, 1-(2-(sec-butylamino)-5-methylpyrimidin-4-yl)-N-((S)-1-(3-chloro-4-fluorophenyl)-2-hydroxyethyl)-1H-pyrrole-3-carboxamide] |
| 500 to 2500 nM | 500 to 2500 nM | 500 to 2500 nM | Cc1cnc(Nc2ccc3c(c2)CC(=O)N3)nc1-n1ccc(C(=O)NC(CO)c2cccc(Cl)c2)c1 (stereo not drawn) [Example 198, N-(1-(3-chlorophenyl)-2-hydroxyethyl)-1-(5-methyl-2-((2-oxoindolin-5-yl)amino)pyrimidin-4-yl)-1H-pyrrole-3-carboxamide] |
| 500 to 2500 nM | > 2500 nM | 500 to 2500 nM | Cc1cnc(NC2CCCN(C)C2)nc1-n1ccc(C(=O)NC(CO)c2cccc(Cl)c2)c1 (stereo not drawn) [Example 199, N-(1-(3-chlorophenyl)-2-hydroxyethyl)-1-(5-methyl-2-((1-methylpiperidin-3-yl)amino)pyrimidin-4-yl)-1H-pyrrole-3-carboxamide] |
